This note sets out measurements from patent US20040038855A1 (priority 1999, published 2004).

Like-named read-outs stand apart in the source and are kept apart here.

Assay [1] has as its target T1, human Dopamine D2 receptor (Homo sapiens, UniProt P14416).
T1 construct: purchased BioSignal, Inc. (Montreal, Canada)
The assay can be described thus: Binding affinity at the human dopamine D2 receptor. To be noted: Table 3c; read-out: hD2 Ki. The text has this: (§1) Other receptors: Cell membranes expressing human dopamine D1, D2, D4 and rat D3 receptors were purchased through BioSignal, Inc. (Montreal, Canada). Binding assays using the histamine H1 receptor; dopamine receptors; and α1A, α1B, and α2 adrenergic receptors may be carried out according to the procedures described in U.S. Pat. No. 5,780,485, the disclosure of which is hereby incorporated by reference in its entirety into this application. Binding assays using the dopamine D5 receptor may be carried out according to the procedures described in U.S. Pat. No. 5,882,855, the disclosure of which is hereby incorporated by reference in its entirety into this application. Binding assays for the human α1D adrenergic receptor may be carried out according to the procedures described in U.S. Pat. No. 6,156,518, the disclosure of which is hereby incorporated by reference in its entirety into this application.

For assay [2], the target named is T2, human Alpha-1a Adrenergic receptor (Homo sapiens, UniProt P35348).
T2 construct: expressed in transfected cells
T2 sequence (P35348 1-466): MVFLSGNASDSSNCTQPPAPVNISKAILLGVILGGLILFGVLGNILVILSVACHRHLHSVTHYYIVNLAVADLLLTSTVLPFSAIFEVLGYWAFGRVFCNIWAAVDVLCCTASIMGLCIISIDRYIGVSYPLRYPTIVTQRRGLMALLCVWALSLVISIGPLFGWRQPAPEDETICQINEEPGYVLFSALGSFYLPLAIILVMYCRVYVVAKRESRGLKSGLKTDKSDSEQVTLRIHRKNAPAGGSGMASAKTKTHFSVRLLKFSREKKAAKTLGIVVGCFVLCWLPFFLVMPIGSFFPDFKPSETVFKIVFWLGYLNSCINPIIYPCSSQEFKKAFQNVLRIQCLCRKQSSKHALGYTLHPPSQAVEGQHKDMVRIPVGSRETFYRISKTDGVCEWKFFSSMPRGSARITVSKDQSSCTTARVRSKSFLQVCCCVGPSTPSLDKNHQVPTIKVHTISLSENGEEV
The assay can be described thus: Binding affinity at the human alpha-1A adrenergic receptor. The following applies: Table 3c; read-out: hAlpha-1a Ki.
Description: as §1

Assay [3] has as its target T3, human Histamine H1 receptor (Homo sapiens, UniProt P35367).
T3 construct: expressed in transfected cells
Description: Binding affinity at the human histamine H1 receptor.
Description: as §1

The target in assay [4] is T4, rat MCH1 receptor (Rattus norvegicus, UniProt P97639).
T4 construct: expressed in transfected cells
Description: Binding affinity (Ki) at the rat MCH1 receptor. The procedure:
For binding assays, pellets of transfected cells are suspended in ice-cold buffer (20 mM Tris.HCl, 5 mM EDTA, pH 7.4) and homogenized by sonication for 7 sec. The cell lysates are centrifuged at 200×g for 5 min at 4° C. The supernatants are then centrifuged at 40,000×g for 20 min at 4° C. The resulting pellets are washed once in the homogenization buffer and suspended in binding buffer (see methods for radioligand binding). Protein concentrations are determined by the method of Bradford (1976) using bovine serum albumin as the standard. Binding assays are usually performed immediately, however it is possible to prepare membranes in batch and store frozen in liquid nitrogen for future use.
Binding is performed at 25° C. for 1 hr. Incubations are terminated by rapid vacuum filtration over GF/C glass fiber filters, presoaked in 5% PEI using 50 mM Tris pH 7.4 containing 0.01% triton X-100 as wash buffer.
A methanolic solution of methyl (4S)-3-({[3-(4-[3-(acetylamino)phenyl]-3,6-dihydro-1(2H)pyridinyl)propyl]amino}carbonyl)-4-(3,4-difluorophenyl)-6-(methoxymethyl)-2-oxo-1,2,3,4-tetrahydro-5-pyrimidinecarboxylate was exposed to tritium gas at 1 atmosphere pressure in the presence of 5% palladium on carbon with stirring overnight to give the tritiated methyl (4S)-3-{[(3-{4-[3-(acetylamino)phenyl]-1-piperidinyl}propyl)amino]carbonyl}-4-(3,4-difluorophenyl)-6-(methoxymethyl)-2-oxo-1,2,3,4-tetrahydro-5-pyrimidinecarboxylate ((+)-isomer) After purification by reverse phase HPLC (Hypersil ODS, 4.6×100 mm, methanol:H2O:Et3N 10:90:1 to 100:0:1 in 15 min at 1.0 mL/min, with radiochemical and UV detection), this product was used as a radioligand in the MCH1 binding assays. The same procedure was carried out with H2 gas in place of ^3H2 to afford the non-radioactive version of Compound 10.

Where [5] appears, read: Examples 38-141, read-out: Ki (nM) rMCH1.

T3 sequence (P35367 whole entry): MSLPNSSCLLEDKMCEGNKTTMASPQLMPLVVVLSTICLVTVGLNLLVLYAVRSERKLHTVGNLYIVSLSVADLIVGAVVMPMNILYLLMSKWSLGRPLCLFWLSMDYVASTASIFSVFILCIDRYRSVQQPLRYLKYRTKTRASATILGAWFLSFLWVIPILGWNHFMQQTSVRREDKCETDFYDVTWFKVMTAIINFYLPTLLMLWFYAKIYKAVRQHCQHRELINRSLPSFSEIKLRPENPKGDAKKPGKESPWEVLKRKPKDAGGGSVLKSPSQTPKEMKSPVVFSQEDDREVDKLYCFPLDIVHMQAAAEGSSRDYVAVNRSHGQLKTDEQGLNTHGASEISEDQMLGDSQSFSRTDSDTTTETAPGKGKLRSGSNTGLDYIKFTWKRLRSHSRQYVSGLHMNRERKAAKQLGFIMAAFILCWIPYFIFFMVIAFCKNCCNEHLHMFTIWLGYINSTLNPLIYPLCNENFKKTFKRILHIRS
T1 sequence (P14416 whole entry): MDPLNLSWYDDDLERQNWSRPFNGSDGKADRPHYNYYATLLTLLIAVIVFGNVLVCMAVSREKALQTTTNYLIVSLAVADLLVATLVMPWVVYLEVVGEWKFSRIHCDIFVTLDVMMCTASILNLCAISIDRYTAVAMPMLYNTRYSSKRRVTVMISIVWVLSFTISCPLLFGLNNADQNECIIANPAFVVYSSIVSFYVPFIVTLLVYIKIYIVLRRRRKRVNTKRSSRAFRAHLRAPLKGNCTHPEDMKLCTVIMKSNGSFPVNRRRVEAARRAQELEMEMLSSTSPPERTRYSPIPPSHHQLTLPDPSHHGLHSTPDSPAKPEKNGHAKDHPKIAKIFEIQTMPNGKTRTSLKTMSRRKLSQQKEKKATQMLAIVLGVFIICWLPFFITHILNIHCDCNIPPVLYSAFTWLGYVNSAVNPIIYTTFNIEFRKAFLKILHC
T4 sequence (P97639 whole entry): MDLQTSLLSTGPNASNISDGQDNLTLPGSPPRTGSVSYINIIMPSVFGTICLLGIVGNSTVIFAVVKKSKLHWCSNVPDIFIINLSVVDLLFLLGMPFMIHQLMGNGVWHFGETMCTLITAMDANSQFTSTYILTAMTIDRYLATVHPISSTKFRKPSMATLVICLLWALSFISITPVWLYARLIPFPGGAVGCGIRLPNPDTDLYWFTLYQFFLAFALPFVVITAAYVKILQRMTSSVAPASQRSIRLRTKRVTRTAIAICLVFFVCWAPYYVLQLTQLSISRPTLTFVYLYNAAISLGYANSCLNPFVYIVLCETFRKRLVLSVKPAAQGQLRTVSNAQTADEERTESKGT

On to `CC(C)C(=O)Nc1cccc(C2CCN(CCCCCN3C(=O)c4ccccc4C3=O)CC2)c1` [Example 95, N-(3-{1-[5-(1,3-dioxo-1,3-dihydro-2H-isoindol-2-yl)pentyl]-4-piperidinyl]phenyl)-2-methylpropanamide], for which the Ki in assay [1] was over 50000 nM; in assay [2] it was 2940 nM; in assay [3] (Table 3c, read-out: hH1 Ki), 6400 nM; in assay [4] (setting [5]), 11.8 nM; in assay [4] (Table 3c, read-out: rMCH1 Ki), 11.8 nM.

Consider `CC(=O)c1ccccc1O[C@@H](CCN1CCC(c2cccc(NC(=O)C(C)C)c2)CC1)c1ccccc1` [Example 126], for which the inhibition constant Ki in assay [1] is 1050 nM; in assay [2], 1520 nM; in assay [3] (Table 3c, read-out: hH1 Ki) it was 8000 nM; in assay [4] (setting [5]), 50 nM; in assay [4] (Table 3c, read-out: rMCH1 Ki), 50 nM.

For the molecule `CC(C)C(=O)Nc1cccc(C2CCN(CC[C@H](Oc3ccc(C#N)cc3)c3ccccc3)CC2)c1` [Example 114, N-(3-{1-[(3S)-3-(4-cyanophenoxy)-3-phenylpropyl]-4-piperidinyl}phenyl)-2-methylpropanamide], the inhibition constant Ki was found to be 390 nM in assay [1]; 233 nM in assay [2]; 590 nM in assay [3] (Table 3c, read-out: hH1 Ki); 2.01 nM in assay [4] (setting [5]); 20.1 nM in assay [4] (Table 3c, read-out: rMCH1 Ki).

With `CCCC(=O)Nc1cccc(C2CCN(CCCNC(=O)C3=C(COC)NC(=O)N[C@@H]3c3ccc(F)c(F)c3)CC2)c1` [Example 45], the inhibition constant Ki in assay [1] was over 50000 nM; in assay [2], 6030 nM; in assay [3] (Table 3c, read-out: hH1 Ki), 4430 nM; in assay [4] (setting [5]), 14.7 nM; in assay [4] (Table 3c, read-out: rMCH1 Ki) it was 14.7 nM.

Turning to `CC(=O)Nc1cccc(C2CCN(CCCNC(=O)N3C(=O)OC[C@@H]3c3cc(F)c(F)c(F)c3)CC2)c1` [Example 129], the Ki is 41500 nM in assay [1]; 381 nM in assay [2]; 6520 nM in assay [3] (Table 3c, read-out: hH1 Ki); 22.3 nM in assay [4] (setting [5]); 22.3 nM in assay [4] (Table 3c, read-out: rMCH1 Ki).

Turning to `CC(C)C(=O)Nc1cccc(C2CCN(CC[C@H](Oc3ccccc3)c3ccccc3)CC2)c1` [Example 105], the inhibition constant (Ki) in assay [1] worked out at 471 nM; in assay [2] it was 140 nM; in assay [3] it was 39.1 nM; in assay [4] it was 7.1 nM; in assay [4] (read-out: rMCH1 Ki, Table 3c) it was 7.1 nM.

With `CC(C)OC(CCN1CCC(c2cccc(NC(=O)C(C)C)c2)CC1)c1ccccc1` (centres unmarked) [Example 100], the inhibition constant Ki in assay [1] came to 8670 nM; in assay [2], 704 nM; in assay [3] (Table 3c, read-out: hH1 Ki), 11100 nM; in assay [4] (setting [5]), 11.5 nM; in assay [4] (Table 3c, read-out: rMCH1 Ki), 11.5 nM.

On to `CCC(=O)Nc1cccc(C2CCN(CCCNC(=O)C3=C(COC)NC(=O)N[C@@H]3c3ccc(F)c(F)c3)CC2)c1` [Example 46], for which the Ki in assay [1] is over 50000 nM; in assay [2], 2420 nM; in assay [3] (Table 3c, read-out: hH1 Ki), 2870 nM; in assay [4] (setting [5]) it was 8.16 nM; in assay [4] (Table 3c, read-out: rMCH1 Ki), 8.16 nM.

Turning to `COC(CCN1CCC(c2cccc(NC(=O)C(C)C)c2)CC1)c1ccc(C)cc1` (centres unmarked) [Example 99], the Ki in assay [1] was determined as 10400 nM; in assay [2], 434 nM; in assay [3] (Table 3c, read-out: hH1 Ki) it was 2560 nM; in assay [4] (setting [5]) it was 12 nM; in assay [4] (Table 3c, read-out: rMCH1 Ki) it was 12 nM.

With `O=C(Cc1ccccc1)Nc1cccc(C2CCN(CCCC(=O)c3ccc(Cl)cc3)CC2)c1` [Example 68], the Ki in assay [1] came out at 771 nM; in assay [2] it was 57 nM; in assay [3] (Table 3c, read-out: hH1 Ki), 571 nM; in assay [4] (setting [5]), 84 nM; in assay [4] (Table 3c, read-out: rMCH1 Ki), 84 nM.

On to `CC(C)C(=O)Nc1cccc(C2CCN(CC[C@H](Oc3ccc(Cl)cc3)c3ccccc3)CC2)c1` [Example 108], for which the Ki in assay [1] was 244 nM; in assay [2] it was 13.2 nM; in assay [3] (Table 3c, read-out: hH1 Ki), 264 nM; in assay [4] (setting [5]) it was 3.8 nM; in assay [4] (Table 3c, read-out: rMCH1 Ki) it was 3.8 nM.

For the molecule `CC(C)C(=O)Nc1cccc(C2CCN(CCCCc3ccccc3)CC2)c1` [Example 96], the inhibition constant Ki in assay [1] came to 7450 nM; in assay [2] it was 12.3 nM; in assay [3] (Table 3c, read-out: hH1 Ki), 273 nM; in assay [4] (setting [5]), 50 nM; in assay [4] (Table 3c, read-out: rMCH1 Ki) it was 50 nM.

In the case of `COc1ccc(O[C@@H](CCN2CCC(c3cccc(NC(=O)C(C)C)c3)CC2)c2ccccc2)cc1` [Example 106], the Ki in assay [1] was 1080 nM; in assay [2], 161 nM; in assay [3] (Table 3c, read-out: hH1 Ki), 304 nM; in assay [4] (setting [5]), 3.9 nM; in assay [4] (Table 3c, read-out: rMCH1 Ki) it was 3.9 nM.

As for `CCC1=C(C(=O)OCc2ccccc2)C(c2ccc(F)cc2F)N(C(=O)NCCCN2CCC(c3cccc(NC(C)=O)c3)CC2)C(=O)N1` (centres unmarked) [Example 52, BENZYL 3-{[(3-{4-[3-(ACETYLAMINO)PHENYL]-1-PIPERIDINYL}PROPYL)AMINO]CARBONYL}-4-(2,4-DIFLUOROPHENYL)-6-ETHYL-2-OXO-1,2,3,4-TETRAHYDRO-5-PYRIMIDINECARBOXYLATE], the Ki in assay [1] is 166 nM; in assay [2] it was 200 nM; in assay [3] (Table 3c, read-out: hH1 Ki) it was 1430 nM; in assay [4] (setting [5]), 0.81 nM; in assay [4] (Table 3c, read-out: rMCH1 Ki), 0.81 nM.

For the molecule `CC(C)C(=O)Nc1cccc(C2CCN(CC[C@@H](Oc3ccc(Cl)c(Cl)c3)c3ccccc3)CC2)c1` [Example 111], the Ki is 162 nM in assay [1]; 125 nM in assay [2]; 1100 nM in assay [3] (Table 3c, read-out: hH1 Ki); 5 nM in assay [4] (setting [5]); 5 nM in assay [4] (Table 3c, read-out: rMCH1 Ki).

With `COc1ccc(C(C)=O)cc1O[C@@H](CCN1CCC(c2cccc(NC(=O)C(C)C)c2)CC1)c1ccccc1` [Example 119], the inhibition constant (Ki) in assay [1] was found to be 766 nM; in assay [2], 1060 nM; in assay [3] (Table 3c, read-out: hH1 Ki), 25300 nM; in assay [4] (setting [5]), 22.4 nM; in assay [4] (Table 3c, read-out: rMCH1 Ki), 22.4 nM.

Turning to `CC(C)C(=O)Nc1cccc(C2CCN(CC[C@@H](Oc3ccccc3[N+](=O)[O-])c3ccccc3)CC2)c1` [Example 133], the Ki is 447 nM in assay [1]; 167 nM in assay [2]; 4180 nM in assay [3] (Table 3c, read-out: hH1 Ki); 25.7 nM in assay [4] (setting [5]); 25.7 nM in assay [4] (Table 3c, read-out: rMCH1 Ki).

`CC(C)C(=O)Nc1cccc(C2CCN(CC[C@@H](O)c3ccccc3)CC2)c1` [Example 113]: the Ki in assay [1] was 42000 nM; in assay [2] it was 3210 nM; in assay [3] (Table 3c, read-out: hH1 Ki), 48700 nM; in assay [4] (setting [5]), 16.6 nM; in assay [4] (Table 3c, read-out: rMCH1 Ki) it was 16.6 nM.

As to `COc1ccc(O[C@H](CCN2CCC(c3cccc(NC(=O)C(C)C)c3)CC2)c2ccccc2)cc1OC` [Example 104], the Ki in assay [1] came out at 735 nM; in assay [2] it was 452 nM; in assay [3] (Table 3c, read-out: hH1 Ki) it was 6390 nM; in assay [4] (setting [5]) it was 6.7 nM; in assay [4] (Table 3c, read-out: rMCH1 Ki), 6.7 nM.

For `COc1cccc(CC(=O)Nc2cccc(C3CCN(CCCC(=O)c4ccccc4)CC3)c2)c1` [Example 76], the Ki in assay [1] turned out to be 470 nM; in assay [2], 41.3 nM; in assay [4] (setting [5]), 21 nM; in assay [4] (Table 3c, read-out: rMCH1 Ki), 21 nM.

Regarding `CC(C)C(=O)Nc1cccc(C2CCN(CCCC(=O)c3ccccc3)CC2)c1` [Example 74], the Ki worked out at 782 nM in assay [1]; 115 nM in assay [2]; 29.5 nM in assay [4] (setting [5]); 29.5 nM in assay [4] (Table 3c, read-out: rMCH1 Ki).

With `COc1cccc(CC(=O)Nc2cccc(C3CCN(CCCC(=O)c4ccc(OC)cc4OC)CC3)c2)c1` [Example 80], the Ki in assay [1] turned out to be 1250 nM; in assay [2], 127 nM; in assay [4] (setting [5]) it was 67 nM; in assay [4] (Table 3c, read-out: rMCH1 Ki), 67 nM.

A word on the Ki: it is a measure of affinity in units of concentration, obtained from inhibition or displacement.
